± gives the expanded uncertainty stated by the source.
Key:
[1] = Liquid; for Normal boiling temperature: Ebulliometric method (Recirculating still)
[2] = excess molar enthalpy (molar enthalpy of mixing); xn = mol fraction of the nth substance listed; conditions: 303.15 K, 101 kPa, Liquid, Calvet calorimetry

| Compound | Normal boiling temperature [1] [°C] | mass density ([1]; 298.15 K, 101.33 kPa, Pycnometric method) [kg/m3] | excess molar enthalpy ([2]; x2 = 0.032) [kcal/mol] | excess molar enthalpy ([2]; x2 = 0.082) [kcal/mol] | excess molar enthalpy ([2]; x2 = 0.127) [kcal/mol] | excess molar enthalpy ([2]; x2 = 0.192) [kcal/mol] | excess molar enthalpy ([2]; x2 = 0.251) [kcal/mol] | excess molar enthalpy ([2]; x2 = 0.351) [kcal/mol] | excess molar enthalpy ([2]; x2 = 0.447) [kcal/mol] | excess molar enthalpy ([2]; x2 = 0.502) [kcal/mol] | excess molar enthalpy ([2]; x2 = 0.572) [kcal/mol] | excess molar enthalpy ([2]; x2 = 0.653) [kcal/mol] | excess molar enthalpy ([2]; x2 = 0.734) [kcal/mol] | excess molar enthalpy ([2]; x2 = 0.874) [kcal/mol] |
| --- | --- | --- | --- | --- | --- | --- | --- | --- | --- | --- | --- | --- | --- | --- |
| CCO [ethanol] | 78.2 ± 0.1 |  |  |  |  |  |  |  |  |  |  |  |  |  |
| c1ccncc1 [pyridine] | 116 ± 0.1 | 980.8 ± 1 |  |  |  |  |  |  |  |  |  |  |  |  |
| c1ccncc1 [pyridine] + CCO |  |  | -0.000359 ± 0.000191 | -0.00153 ± 0.000191 | -0.00308 ± 0.000239 | -0.00545 ± 0.000311 | -0.00827 ± 0.000406 | -0.0122 ± 0.00055 | -0.0172 ± 0.000741 | -0.0185 ± 0.000789 | -0.0189 ± 0.000813 | -0.0152 ± 0.000669 | -0.0126 ± 0.000574 | -0.00598 ± 0.000311 |

Reference: the NIST ThermoML archive (doi:10.1021/je1002048)
